Calls of active or inactive are those of the source. The rule behind the calls is not given here.
Columns and labels:
Staphylococcus aureus [1] = assay: Antibacterial activity against Staphylococcus aureus ATCC 29213 using PVP encapsulated compound at 20 uM preincubated in dark for 30 mins followed by red light irradiation at 270 J/cm2 for 30 mins by […] relative to control; format: functional, organism-based
[2] = Induction of singlet oxygen generation in PBS assessed as DPBF decay using PVP encapsulated compound at 0.5 mmol/L measured after 7 mins of LED irradiation at 9 mW/cm2; format: functional
[3] = Photostability in PBS at 2 ml measured after 30 mins of red light irradiation at 150 mW/cm2 by UV-Vis spectroscopic method; format: physicochemical; details: buffer, 0.5 h
Staphylococcus aureus [4] = assay: Effect on viability of Staphylococcus aureus ATCC 29213 using PVP encapsulated compound at 20 uM after 30 mins in absence of light by […]; format: organism-based; details: in vivo, 0.5 h
Staphylococcus aureus [5] = assay: Effect on viability of Staphylococcus aureus ATCC 29213 at 20 uM after 30 mins in absence of light by […]; format: organism-based; details: in vivo, 0.5 h
[6] = Solubility of compound in DMSO at 2.5 to 25 umol/L by UV-Vis spectroscopic method; format: physicochemical
Escherichia coli [7] = assay: Effect on viability of recombinant bioluminescence Escherichia coli harboring pHK724/pHK555 at 20 uM after 30 mins in absence of light by luminometry; format: organism-based; details: in vivo, 0.5 h
[8] = Solubility of PVP encapsulated compound in PBS at 2.5 to 25 umol/L by UV-Vis spectroscopic method; format: physicochemical; details: buffer
Escherichia coli [9] = assay: Antibacterial activity against recombinant bioluminescence Escherichia coli harboring pHK724/pHK555 at 20 uM preincubated in dark for 30 mins followed by red light irradiation at 1620 J/cm2 for 180 mins by luminometry; format: functional, organism-based
[10] = Solubility of compound in PBS/10% DMSO at 2.5 to 25 umol/L by UV-Vis spectroscopic method; format: physicochemical; details: buffer
[11] = Induction of singlet oxygen generation in PBS/DMSO assessed as DPBF decay at 0.5 mmol/L measured after 7 mins of LED irradiation at 9 mW/cm2; format: functional
Escherichia coli [12] = assay: Antibacterial activity against recombinant bioluminescence Escherichia coli harboring pHK724/pHK555 at 20 uM using PVP encapsulated compound preincubated in dark for 30 mins followed by red light irradiation at 1620 J/cm2 for 180 mins by luminometry; format: functional, organism-based
[13] = Induction of singlet oxygen generation in DMF assessed as DPBF decay at 0.5 mmol/L measured after 7 mins of LED irradiation at 9 mW/cm2; format: functional
Escherichia coli [14] = assay: Effect on viability of recombinant bioluminescence Escherichia coli harboring pHK724/pHK555 using PVP encapsulated compound at 20 uM after 30 mins in absence of light by luminometry; format: organism-based; details: in vivo, 0.5 h
Staphylococcus aureus [15] = assay: Antibacterial activity against Staphylococcus aureus ATCC 29213 at 20 uM preincubated in dark for 30 mins followed by red light irradiation at 270 J/cm2 for 30 mins by […] relative to control; format: functional

Q: Which results are given for CC(C)NS(=O)(=O)c1ccc(Oc2cc3c(cc2Oc2ccc(S(=O)(=O)NC(C)C)cc2)-c2nc-3nc3[nH]c(nc4nc(nc5[nH]c(n2)c2cc(Oc6ccc(S(=O)(=O)NC(C)C)cc6)c(Oc6ccc(S(=O)(=O)NC(C)C)cc6)cc52)-c2cc(Oc5ccc(S(=O)(=O)NC(C)C)cc5)c(Oc5ccc(S(=O)(=O)NC(C)C)cc5)cc2-4)c2cc(Oc4ccc(S(=O)(=O)NC(C)C)cc4)c(Oc4ccc(S(=O)(=O)NC(C)C)cc4)cc32)cc1?
A: Activity (Staphylococcus aureus [1]): Active; Activity [2]: 74%; Stability [3]: Stable; Activity (Staphylococcus aureus [4]): Non-Toxic; Activity (Staphylococcus aureus [5]): Non-Toxic; solubility [6]: Soluble; Activity (Escherichia coli [7]): Non-Toxic; solubility [8]: Soluble; Activity (Escherichia coli [9]): Active; solubility [10]: Insoluble; Activity [11]: 4%; Activity (Escherichia coli [12]): inactive; Activity [13]: 96%; Activity (Escherichia coli [14]): Non-Toxic

Q: For COc1ccc(NS(=O)(=O)c2ccc(Oc3cc4c(cc3Oc3ccc(S(=O)(=O)Nc5ccc(OC)cc5)cc3)-c3nc-4nc4[nH]c(nc5nc(nc6[nH]c(n3)c3cc(Oc7ccc(S(=O)(=O)Nc8ccc(OC)cc8)cc7)c(Oc7ccc(S(=O)(=O)Nc8ccc(OC)cc8)cc7)cc63)-c3cc(Oc6ccc(S(=O)(=O)Nc7ccc(OC)cc7)cc6)c(Oc6ccc(S(=O)(=O)Nc7ccc(OC)cc7)cc6)cc3-5)c3cc(Oc5ccc(S(=O)(=O)Nc6ccc(OC)cc6)cc5)c(Oc5ccc(S(=O)(=O)Nc6ccc(OC)cc6)cc5)cc43)cc2)cc1, which Activity (Staphylococcus aureus [1]) is on record?
A: Active

Q: What about the Activity [2] of the same molecule?
A: 59%

Q: What about the Stability [3] of the same molecule?
A: Stable

Q: And the Activity (Staphylococcus aureus [4])?
A: Non-Toxic

Q: And the Activity (Staphylococcus aureus [5])?
A: Non-Toxic

Q: And the solubility [6]?
A: Soluble

Q: And the Activity (Escherichia coli [7])?
A: Non-Toxic

Q: And the solubility [8]?
A: Soluble

Q: What about the Activity (Escherichia coli [9]) of the same molecule?
A: Active

Q: What about the solubility [10] of the same molecule?
A: Insoluble

Q: And the Activity [11]?
A: 4%

Q: What about the Activity (Escherichia coli [12]) of the same molecule?
A: inactive

Q: What about the Activity [13] of the same molecule?
A: 92%

Q: What about the Activity (Escherichia coli [14]) of the same molecule?
A: Non-Toxic

Q: What about the Activity (Staphylococcus aureus [15]) of the same molecule?
A: >3 deltalog10CFU/ml

Q: What does the source list for CCN(CC)S(=O)(=O)c1ccc(Oc2cc3c(cc2Oc2ccc(S(=O)(=O)N(CC)CC)cc2)-c2nc-3nc3[nH]c(nc4nc(nc5[nH]c(n2)c2cc(Oc6ccc(S(=O)(=O)N(CC)CC)cc6)c(Oc6ccc(S(=O)(=O)N(CC)CC)cc6)cc52)-c2cc(Oc5ccc(S(=O)(=O)N(CC)CC)cc5)c(Oc5ccc(S(=O)(=O)N(CC)CC)cc5)cc2-4)c2cc(Oc4ccc(S(=O)(=O)N(CC)CC)cc4)c(Oc4ccc(S(=O)(=O)N(CC)CC)cc4)cc32)cc1?
A: Activity (Staphylococcus aureus [1]): Active; Activity [2]: 68%; Stability [3]: Stable; Activity (Staphylococcus aureus [4]): Non-Toxic; Activity (Staphylococcus aureus [5]): Non-Toxic; solubility [6]: Soluble; Activity (Escherichia coli [7]): Non-Toxic; solubility [8]: Soluble; Activity (Escherichia coli [9]): inactive; solubility [10]: Insoluble; Activity [11]: 1%; Activity (Escherichia coli [12]): inactive; Activity [13]: 93%; Activity (Escherichia coli [14]): Non-Toxic; Activity (Staphylococcus aureus [15]): >3 deltalog10CFU/ml
